29 compounds from patent US9562053B2, “Benzo-fused heterocyclic derivatives useful as agonists of GPR120” (Janssen Pharmaceutica NV, priority 2013, dated 2017) can be followed below.

The target in the experiment is T1, Human GPR120 short form (Homo sapiens, UniProt Q5NUL3).
T1 construct: expressed in transfected cells
T1 sequence (Q5NUL3 1-361): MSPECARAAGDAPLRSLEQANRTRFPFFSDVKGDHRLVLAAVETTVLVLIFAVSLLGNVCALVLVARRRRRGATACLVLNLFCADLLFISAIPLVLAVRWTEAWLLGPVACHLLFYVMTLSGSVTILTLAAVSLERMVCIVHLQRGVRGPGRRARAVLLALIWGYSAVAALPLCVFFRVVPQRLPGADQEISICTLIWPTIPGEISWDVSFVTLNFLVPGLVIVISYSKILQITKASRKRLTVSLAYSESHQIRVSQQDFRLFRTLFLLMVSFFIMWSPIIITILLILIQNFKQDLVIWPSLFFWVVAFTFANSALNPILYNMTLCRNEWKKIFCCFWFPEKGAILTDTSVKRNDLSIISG
In words: Human GPR120 in Calcium Flux Assay, Procedure Calcium A (2500 cells/well). It counts as cell-based. The method in brief: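 HEK293 cells stably expressing GPR120 short isoform, 2500 cells/well, serum-starved 1 h, loaded with Fluo-4 NW plus probenecid (30 min 37 °C, 15 min RT). Compounds prepared at 0.012–100 μM, 0.2% DMSO final. FLIPR calcium signal over 300 s as Fmax−Fmin; EC50 from variable-slope fit (Hill <2).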
Background: Calcium flux is commonly read through the fluorescence of an indicator in the cells.

The EC50 is the concentration at which the effect is half-maximal. As to `CCc1cc2cc(F)cc(COc3ccc(CCC(=O)O)c(C)c3C)c2o1` [Compound 3, 3-{4-[(2-Ethyl-5-fluoro-1-benzofuran-7-yl)methoxy]-2,3-dimethylphenyl}propanoic acid], the EC50 was 0.058 µM. Next, `CC#Cc1cc(COc2ccc(CCC(=O)O)c(C)c2C)c2oc(C)cc2c1` [Compound 83, 3-{2,3-Dimethyl-4-[(2-methyl-5-prop-1-yn-1-yl-1-benzofuran-7-yl)methoxy]phenyl}propanoic acid]: 0.051 µM; `CCc1cc2cc(Cl)c(CC)c(COc3ccc(CCC(=O)O)c(C)c3C)c2o1` [Compound 61, 3-{4-[(5-Chloro-2,6-diethyl-1-benzofuran-7-yl)methoxy]-2,3-dimethylphenyl}propanoic acid]: 0.024 µM; `Cc1cc2cc(OC(F)F)cc(COc3ccc(CCC(=O)O)c(C)c3C)c2o1` [Compound 76, 3-(4-{[5-(Difluoromethoxy)-2-methyl-1-benzofuran-7-yl]methoxy}-2,3-dimethylphenyl)propanoic acid]: 0.02 µM. Next, `Cc1nc2c(COc3ccc(CCC(=O)O)c(C)c3C)cc(Cl)cc2s1` [Compound 98, 3-{4-[(6-Chloro-2-methyl-1,3-benzothiazol-4-yl)methoxy]-2,3-dimethylphenyl}propanoic acid]: 0.018 µM; `Cc1oc2c(COc3ccc(CCC(=O)O)c(C)c3C)cc(F)cc2c1F` [Compound 5, 3-{4-[(3,5-Difluoro-2-methyl-1-benzofuran-7-yl)methoxy]-2,3-dimethylphenyl}propanoic acid]: 1.24 µM. `CCOc1c(Cl)cc2cc(CC)oc2c1COc1ccc(CCC(=O)O)c(C)c1C` [Compound 62, 3-{4-[(5-Chloro-6-ethoxy-2-ethyl-1-benzofuran-7-yl)methoxy]-2,3-dimethylphenyl}propanoic acid]: the half-maximal effective concentration (EC50) was 0.067 µM. As to `CCCc1cc2cc(Cl)cc(COc3ccc(CCC(=O)O)c(C)c3C)c2o1` [Compound 31, 3-{4-[(5-Chloro-2-propyl-1-benzofuran-7-yl)methoxy]-2,3-dimethylphenyl}propanoic acid], the EC50 came to 0.044 µM. Next, `Cc1c(CCC(=O)O)ccc(OCc2cc(F)cc3cc(C4CCCC4)oc23)c1C` [Compound 18, 3-{4-[(2-Cyclopentyl-5-fluoro-1-benzofuran-7-yl)methoxy]-2,3-dimethylphenyl}propanoic acid]: 0.653 µM; `Cc1c(CCC(=O)O)ccc(OCc2cc(Cl)cc3cnn(C)c23)c1C` [Compound 7, 3-{4-[(5-Chloro-1-methyl-1H-indazol-7-yl)methoxy]-2,3-dimethylphenyl}propanoic acid]: 0.124 µM; `Cc1cc2c(COc3ccc(CCC(=O)O)c(C)c3C)cc(Cl)cc2o1` [Compound 81, 3-{4-[(6-Chloro-2-methyl-1-benzofuran-4-yl)methoxy]-2,3-dimethylphenyl}propanoic acid]: 0.136 µM.

`CCCc1cc2cc(I)cc(COc3ccc(CCC(=O)O)c(C)c3C)c2o1` [Compound 47, 3-{4-[(5-Iodo-2-propyl-1-benzofuran-7-yl)methoxy]-2,3-dimethylphenyl}propanoic acid]: the EC50 came out at 0.022 µM.

As for `Cc1c(CCC(=O)O)ccc(OCc2cc(Cl)cc3cc(C=CF)oc23)c1C` (mixture of isomers) [Compound 88, 3-(4-((5-Chloro-2-(2-fluorovinyl)benzofuran-7-yl)methoxy)-2,3-dimethylphenyl)propanoic acid], the EC50 worked out at 0.147 µM.

In the case of `CCCc1cc2cc(OC(F)(F)F)cc(COc3ccc(CCC(=O)O)c(C)c3C)c2o1` [Compound 35, 3-(2,3-Dimethyl-4-{[2-propyl-5-(trifluoromethoxy)-1-benzofuran-7-yl]methoxy}phenyl)propanoic acid], the EC50 amounted to 0.04 µM.

For the compound `CCc1cc2cc(Cl)c(OC)c(COc3ccc(CCC(=O)O)c(C)c3C)c2o1` [Compound 44, 3-{4-[(5-Chloro-2-ethyl-6-methoxy-1-benzofuran-7-yl)methoxy]-2,3-dimethylphenyl}propanoic acid], the EC50 was 0.027 µM. For `Cc1c(CCC(=O)O)ccc(OCc2cc(OC(F)(F)F)cc3cc(C=CF)oc23)c1C` (mixture of isomers) [Compound 97, 3-(4-{[2-(2-Fluoroethenyl)-5-(trifluoromethoxy)-1-benzofuran-7-yl]methoxy}-2,3-dimethylphenyl)propanoic acid], the EC50 was 0.02 µM. Next, `CCCc1cc2cc(Cl)cc(COc3ccc(CCC(=O)O)c(F)c3F)c2o1` [Compound 59, 3-{4-[(5-Chloro-2-propyl-1-benzofuran-7-yl)methoxy]-2,3-difluorophenyl}propanoic acid]: 0.093 µM; `Cc1cc2cc3c(c(COc4ccc(CCC(=O)O)c(C)c4C)c2o1)OCO3` [Compound 82, 3-{2,3-Dimethyl-4-[(6-methylfuro[2,3-f][1,3]benzodioxol-4-yl)methoxy]phenyl}propanoic acid]: 0.153 µM.

Take `CCOc1cc(COc2ccc(CCC(=O)O)c(C)c2C)c2oc(CC)cc2c1` [Compound 29, 3-{4-[(5-Ethoxy-2-ethyl-1-benzofuran-7-yl)methoxy]-2,3-dimethylphenyl}propanoic acid]: the EC50 is 0.107 µM. Regarding `CC#Cc1cc(COc2ccc(CCC(=O)O)c(C)c2C)c2oc(CCC)cc2c1` [Compound 58, 3-{2,3-Dimethyl-4-[(2-propyl-5-prop-1-yn-1-yl-1-benzofuran-7-yl)methoxy]phenyl}propanoic acid], the EC50 stood at 0.087 µM. Next, `CCc1cc2cc(Cl)c(OCC(C)C)c(COc3ccc(CCC(=O)O)c(C)c3C)c2o1` [Compound 67, 3-(4-{[5-Chloro-2-ethyl-6-(2-methylpropoxy)-1-benzofuran-7-yl]methoxy}-2,3-dimethylphenyl)propanoic acid]: 0.093 µM; `CCCc1cc2cc(Cl)cc(COc3ccc(CCC(=O)O)c(C)c3C#N)c2o1` [Compound 41, 3-{4-[(5-Chloro-2-propyl-1-benzofuran-7-yl)methoxy]-3-cyano-2-methylphenyl}propanoic acid]: 0.291 µM.

Consider `CCc1cc2cc(Cl)c(C)c(COc3ccc(CCC(=O)O)c(C)c3C)c2o1` [Compound 40, 3-{4-[(5-Chloro-2-ethyl-6-methyl-1-benzofuran-7-yl)methoxy]-2,3-dimethylphenyl}propanoic acid], for which the EC50 is 0.034 µM. Next, `Cc1c(CCC(=O)O)ccc(OCc2cc(Cl)cc3cc(CC(F)F)oc23)c1C` [Compound 87, 3-(4-{[5-Chloro-2-(2,2-difluoroethyl)-1-benzofuran-7-yl]methoxy}-2,3-dimethylphenyl)propanoic acid]: 0.079 µM. Next, `CCc1cc2cc(Cl)cc(COc3ccc(CCC(=O)O)c(C)c3C)c2o1` [Compound 11, 3-{4-[(5-Chloro-2-ethyl-1-benzofuran-7-yl)methoxy]-2,3-dimethylphenyl}propanoic acid]: 0.023 µM; `CCc1cc2cc(Br)cc(COc3ccc(CCC(=O)O)c(C)c3C)c2o1` [Compound 45, 3-{4-[(5-Bromo-2-ethyl-1-benzofuran-7-yl)methoxy]-2,3-dimethylphenyl}propanoic acid]: 0.024 µM; `Cc1c(CCC(=O)O)ccc(OCc2cc(F)cc3cc(C#N)oc23)c1C` [Compound 49, 3-{4-[(2-Cyano-5-fluoro-1-benzofuran-7-yl)methoxy]-2,3-dimethylphenyl}propanoic acid]: 0.237 µM. The figure for `CCOc1ccc2cc(CC)oc2c1COc1ccc(CCC(=O)O)c(C)c1C` [Compound 66, 3-{4-[(6-Ethoxy-2-ethyl-1-benzofuran-7-yl)methoxy]-2,3-dimethylphenyl}propanoic acid] is 0.077 µM. Regarding `Cc1cc2cc3c(c(COc4ccc(CCC(=O)O)c(C)c4C)c2o1)OC(F)(F)O3` [Compound 89, 3-{4-[(2,2-Difluoro-6-methylfuro[2,3-f][1,3]benzodioxol-4-yl)methoxy]-2,3-dimethylphenyl}propanoic acid], the EC50 amounted to 0.017 µM.
